“Also recorded” adds a separate entry of the source.

The source of these data is ChEMBL document CHEMBL2303647, “Data associated with the publication PLoS ONE, 8(3), e57888, (2013) PMID: 23505445. Compounds: GSK PKIS; Assays: NIH NCATS”.

Experiment [1] addresses T1, Coelenterazine h 2-monooxygenase (Renilla reniformis, UniProt P27652).
T1 sequence (P27652 whole entry): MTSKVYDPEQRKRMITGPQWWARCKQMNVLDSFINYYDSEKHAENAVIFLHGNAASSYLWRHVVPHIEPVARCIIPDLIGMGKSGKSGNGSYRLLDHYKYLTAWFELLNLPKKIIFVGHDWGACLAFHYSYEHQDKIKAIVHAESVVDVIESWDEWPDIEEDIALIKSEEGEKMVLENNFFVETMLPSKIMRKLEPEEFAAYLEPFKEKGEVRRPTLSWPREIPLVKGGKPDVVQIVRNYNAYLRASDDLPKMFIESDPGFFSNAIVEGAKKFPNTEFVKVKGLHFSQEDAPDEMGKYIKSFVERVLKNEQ
Description: GSK_PKIS: Inhibition of Sea Pansy Luciferase (Data from PubChem: AID 652015) [NIH NCATS]

The target of experiment [2] is Luciferin 4-monooxygenase (Photinus pyralis, UniProt P08659).
Sequence of Luciferin 4-monooxygenase (P08659 whole entry): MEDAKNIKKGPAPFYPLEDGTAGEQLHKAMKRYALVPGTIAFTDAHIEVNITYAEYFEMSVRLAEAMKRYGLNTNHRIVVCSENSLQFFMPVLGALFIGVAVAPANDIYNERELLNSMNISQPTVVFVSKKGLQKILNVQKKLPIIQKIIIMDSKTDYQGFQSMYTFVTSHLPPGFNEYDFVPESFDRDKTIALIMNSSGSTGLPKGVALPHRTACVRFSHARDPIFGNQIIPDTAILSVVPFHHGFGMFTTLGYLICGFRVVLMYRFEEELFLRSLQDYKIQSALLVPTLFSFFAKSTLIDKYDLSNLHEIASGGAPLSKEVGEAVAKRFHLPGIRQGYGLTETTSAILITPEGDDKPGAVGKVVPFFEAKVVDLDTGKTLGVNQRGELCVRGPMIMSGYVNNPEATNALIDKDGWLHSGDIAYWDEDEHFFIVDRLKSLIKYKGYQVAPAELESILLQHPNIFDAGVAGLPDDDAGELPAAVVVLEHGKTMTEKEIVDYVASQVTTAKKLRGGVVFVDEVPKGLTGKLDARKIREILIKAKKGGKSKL
Description: GSK_PKIS: Inhibition of Firefly Luciferase (Data from PubChem: AID 652016) [NIH NCATS]

Consider `CS(=O)(=O)Nc1ccc(-c2ccc3c(NC(=O)C4CC4)n[nH]c3c2)cc1`, for which the AC50 entry was “Phenotype: Inactive; Curve_Description: None” in experiment [1] and 20.6 µM in experiment [2] (read-out: AC50).

As for `CS(=O)(=O)Nc1cccc(-c2ccc3c(NC(=O)C4CC4)n[nH]c3c2)c1`, the figures for the AC50 result in experiment [1] and in experiment [2] (read-out: AC50) were “Phenotype: Inactive; Curve_Description: None” and 20.6 µM, respectively.

Take `NS(=O)(=O)c1ccc(-c2ccc3c(NC(=O)C4CC4)n[nH]c3c2)cc1`: the half-maximal activity concentration (AC50) result in experiment [1] and in experiment [2] was “Phenotype: Inactive; Curve_Description: None” throughout.

Consider `O=C1NC(=O)C(c2cccc(Cl)c2)=C1Nc1ccc(Cl)c(C(=O)O)c1`, for which the AC50 entry in experiment [1] and in experiment [2] was “Phenotype: Inactive; Curve_Description: None” in each case.

Regarding `O=C1NC(=O)C(c2ccc(Cl)cc2)=C1Nc1ccc(Cl)c(C(=O)O)c1`, the AC50 entry in experiment [1] and in experiment [2] was “Phenotype: Inactive; Curve_Description: None” each time.

Regarding `O=C1NC(=O)C(c2ccccc2Cl)=C1Nc1cccc(O)c1`, the AC50 result in experiment [1] and in experiment [2] was “Phenotype: Inactive; Curve_Description: None” each time.

For `Cl.ON=C1CCc2cc(-c3nc(C4CCNCC4)[nH]c3-c3ccncc3)ccc21`, the AC50 entry in experiment [1] and in experiment [2] was “Phenotype: Inactive; Curve_Description: None” throughout.

As to `CN(C)CCOc1ccc(-c2cc(-c3ccc4c(c3)CCC4=NO)c(-c3ccncc3)o2)cc1.Cl`, the half-maximal activity concentration (AC50) entry in experiment [1] and in experiment [2] was “Phenotype: Inactive; Curve_Description: None” in each case.

Regarding `CCn1c(-c2nonc2N)nc2ccncc21`, the concentration at half-maximal activity (AC50) entry in experiment [1] and in experiment [2] was “Phenotype: Inactive; Curve_Description: None” in each case.

For `CCn1c(-c2nonc2N)nc2c(N3CCCC3)nccc21`, the AC50 result in experiment [1] and in experiment [2] was “Phenotype: Inactive; Curve_Description: None” in each case.

With `Cn1c(-c2nonc2N)nc2cnccc21`, the AC50 result in experiment [1] and in experiment [2] was “Phenotype: Inactive; Curve_Description: None” in each case.

On to `CCOc1nccc2c1nc(-c1nonc1N)n2CC`, for which the AC50 entry in experiment [1] and in experiment [2] was “Phenotype: Inactive; Curve_Description: None” throughout.

`Nc1nccc(-c2c(-c3ccc(F)cc3)ncn2C2CCC(O)CC2)n1` (stereo unspecified): the AC50 entry in experiment [1] and in experiment [2] was “Phenotype: Inactive; Curve_Description: None” throughout.

Turning to `O=C(Nc1n[nH]c2nnc(-c3cccnc3)cc12)C1CC1.O=C(O)C(F)(F)F`, the AC50 entry in experiment [1] and in experiment [2] was “Phenotype: Inactive; Curve_Description: None” in each case.

As for `CCN1CCC(C(=O)Nc2n[nH]c3nnc(-c4cccc(F)c4F)cc23)CC1.Cl`, the AC50 result in experiment [1] and in experiment [2] was “Phenotype: Inactive; Curve_Description: None” each time.

As to `Cl.c1ccc(-c2nc3n(c2-c2ccc4c(c2)OCO4)CCC3)nc1`, the AC50 entry in experiment [1] and in experiment [2] was “Phenotype: Inactive; Curve_Description: None” in each case.

Take `Cl.NC(=O)c1ccc(-c2nc(-c3ccccn3)c(-c3ccc4c(c3)OCO4)[nH]2)cc1`: the AC50 entry in experiment [1] and in experiment [2] was “Phenotype: Inactive; Curve_Description: None” throughout.

In the case of `CCn1c(-c2nonc2N)nc2cncc(C(=O)N3CC[C@H](N)C3)c21.Cl`, the AC50 entry in experiment [1] and in experiment [2] was “Phenotype: Inactive; Curve_Description: None” throughout.

Regarding `Cl.Fc1ccc(-c2nc3n(c2-c2ccncc2)CCS3)cc1`, the AC50 entry in experiment [1] and in experiment [2] was “Phenotype: Inactive; Curve_Description: None” in each case.

For the molecule `Cl.Nc1nccc(-c2c(-c3ccc(F)cc3)ncn2C2CCNCC2)n1`, the AC50 result in experiment [1] is “Phenotype: Inactive; Curve_Description: None; also recorded: Phenotype: Activator; Curve_Description: None”; in experiment [2] it was “Phenotype: Inactive; Curve_Description: None”; in experiment [2] (read-out: AC50), 23.1 µM.

For `Cl.NCc1ccc(-c2nc(-c3ccc(Cl)c(O)c3)c(-c3ccncc3)[nH]2)cc1`, the AC50 result in experiment [1] and in experiment [2] was “Phenotype: Inactive; Curve_Description: None” in each case.

Take `CN(C)CCCn1c(-c2nonc2N)nc2cnccc21`: the half-maximal activity concentration (AC50) entry in experiment [1] and in experiment [2] was “Phenotype: Inactive; Curve_Description: None” in each case.

Consider `COc1ccc2cc(-c3c(-c4ccncc4)nc(-c4ccc(S(C)(=O)=O)cc4C)n3C)ccc2c1`, for which the AC50 entry in experiment [1] and in experiment [2] was “Phenotype: Inactive; Curve_Description: None” in each case.

With `O=C(Nc1n[nH]c2nc(-c3ccc(O)cc3)c(Br)cc12)C1CC1`, the AC50 result is “Phenotype: Inactive; Curve_Description: None” in experiment [1] and 20.6 µM in experiment [2] (read-out: AC50).

As to `O=C(Nc1n[nH]c2cc(-c3cc(F)ccc3F)ccc12)C1CC1`, the AC50 result in experiment [1] is “Phenotype: Inactive; Curve_Description: None”; in experiment [2] (read-out: AC50) it was 16.3 µM.

With `Fc1ccc(-c2c(-c3ccncc3)nc3n2CCS3)cc1`, the AC50 result in experiment [1] and in experiment [2] was “Phenotype: Inactive; Curve_Description: None” in each case.

`Nc1nccc(-c2c(-c3ccc(F)cc3)ncn2CCCN2CCOCC2)n1`: the AC50 result in experiment [1] and in experiment [2] was “Phenotype: Inactive; Curve_Description: None” throughout.

Consider `CN1CCC(n2cnc(-c3ccc(F)cc3)c2-c2ccnc(Nc3ccccc3)n2)CC1`, for which the AC50 entry in experiment [1] and in experiment [2] was “Phenotype: Inactive; Curve_Description: None” in each case.

Consider `CN1CCC(n2cnc(-c3ccc(F)cc3)c2-c2ccnc(NCCO)n2)CC1`, for which the half-maximal activity concentration (AC50) result is “Phenotype: Inactive; Curve_Description: None” in experiment [1] and 36.6 µM in experiment [2] (read-out: AC50).

As for `CCc1nccc2c1nc(-c1nonc1N)n2CC`, the AC50 result in experiment [1] and in experiment [2] was “Phenotype: Inactive; Curve_Description: None” each time.

As for `COc1ccc2cc(-c3c(-c4ccncc4)nc(-c4ccc([S+](C)[O-])cc4)n3C)ccc2c1` (stereo unspecified), the AC50 result in experiment [1] is “Phenotype: Inactive; Curve_Description: None”; in experiment [2] (read-out: AC50), 36.6 µM.

With `O=C(Nc1n[nH]c2nc(-c3ccco3)c(Br)cc12)C1CC1`, the AC50 result in experiment [1] was “Phenotype: Inactive; Curve_Description: None”; in experiment [2] (read-out: AC50) it was 20.6 µM.

With `O=C(Nc1n[nH]c2cc(-c3ccc(F)cc3)ccc12)C1CC1`, the AC50 result is “Phenotype: Inactive; Curve_Description: None” in experiment [1] and 16.3 µM in experiment [2] (read-out: AC50).

With `CN1CCC(n2cnc(-c3ccc(F)cc3)c2-c2ccnc(N)n2)CC1`, the AC50 entry in experiment [1] and in experiment [2] was “Phenotype: Inactive; Curve_Description: None” each time.

For `CC1(C)CC(n2cnc(-c3ccc(F)cc3)c2-c2ccnc(N)n2)CC(C)(C)N1`, the values for the concentration at half-maximal activity (AC50) result in experiment [1] and in experiment [2] (read-out: AC50) were “Phenotype: Inactive; Curve_Description: None” and 41.1 µM, respectively.

For orientation: AC50 means the concentration at which the activity in the assay is half-maximal.
